# Results as given in paper doi:10.1101/2020.05.11.20064584v1 (medRxiv, 2020).
# Like-named read-outs stand apart in the source and are kept apart here.
# Columns and labels:
# [1] = Acute and subchronic toxicity test in rats; assay type: in vivo; conditions: SD rats, oral gavage, 100 times of the expected clinical dose
# [2] = test system: rVSV-SARS; conditions: 2 h, 10 ug/ml
# [3] = 6.0E10/kg·day by gavage, end of two weeks, n=5, Mean ± SEM
# [4] = Rat pharmacokinetics, blood LL-37 by ELISA after gavage; assay type: in vivo, SD rats; conditions: male, SD, serum, po
smiles,measurement,setting,value
CC[C@H](C)[C@H](NC(=O)[C@H](CCCCN)NC(=O)[C@H](CCC(=O)O)NC(=O)[C@H](CCCCN)NC(=O)[C@H](CO)NC(=O)[C@H](CCCCN)NC(=O)[C@H](CCCNC(=N)N)NC(=O)[C@H](Cc1ccccc1)NC(=O)[C@H](Cc1ccccc1)NC(=O)[C@H](CC(=O)O)NC(=O)CNC(=O)[C@H](CC(C)C)NC(=O)[C@@H](N)CC(C)C)C(=O)NCC(=O)N[C@@H](CCCCN)C(=O)N[C@@H](CCC(=O)O)C(=O)N[C@@H](Cc1ccccc1)C(=O)N[C@@H](CCCCN)C(=O)N[C@@H](CCCNC(=N)N)C(=O)N[C@H](C(=O)N[C@H](C(=O)N[C@@H](CCC(N)=O)C(=O)N[C@@H](CCCNC(=N)N)C(=O)N[C@H](C(=O)N[C@@H](CCCCN)C(=O)N[C@@H](CC(=O)O)C(=O)N[C@@H](Cc1ccccc1)C(=O)N[C@@H](CC(C)C)C(=O)N[C@@H](CCCNC(=N)N)C(=O)N[C@@H](CC(N)=O)C(=O)N[C@@H](CC(C)C)C(=O)N[C@H](C(=O)N1CCC[C@H]1C(=O)N[C@@H](CCCNC(=N)N)C(=O)N[C@H](C(=O)N[C@@H](CCC(=O)O)C(=O)N[C@@H](CO)C(=O)O)[C@@H](C)O)C(C)C)[C@@H](C)CC)C(C)C)[C@@H](C)CC [LL-37],LD50,[1],more than 6 × 10^10 CFU/kg/ day
same,"maximum inhibition rate, rVSV-SARS",[2],85%
same,CK,[3]; female SD rats,715.56±343.35 U/L
same,TC,[3]; female SD rats,1.30 ± 0.20 mM
same,TG,[3]; female SD rats,0.33 ± 0.07 mM
same,CK,[3]; male SD rats,661.02±93.22 U/L
same,TG,[3]; male SD rats,0.29 ± 0.03 mM
same,level at 1 h,[4],0.7 ng/mL
same,level at 2 h,[4],1.65 ng/mL
same,level at 4 h,[4],0.92 ng/mL
same,level at 6 h,[4],0.14 ng/mL
